Like-named read-outs stand apart in the source and are kept apart here. One block for each compound: values may come before it.
What was measured:
[1] = test system: benzodiazepine site of GABAARs; assay: [3H]flunitrazepam binding in rat cortical membrane homogenates; conditions: comparative experiments
Method: Standard procedures for preparation of rat cortical membranes for radioligand binding assays were conducted as previously described with modifications in speed and number of centrifugation and washes, and buffer compositions. […] Naïve rat cortex was dissected from brain and homogenized in 0.32 M sucrose, 10 mM HEPES buffer (pH 7.4), and centrifuged at 650×g, 4° C. The subsequent supernatant was centrifuged at 150,000×g to collect the desired membrane-containing pellet. The pellet was washed and centrifuged two more times, first using ice-cold water and second using membrane buffer containing 50 mM KH2PO4, 1 mM EDTA, 2 mM benzamidine HCl, 0.5 mM DTT, 0.1 mM benzethonium HCl, 0.01% bacitracin, 0.2 PMSF (pH 7.4), and the resulting pellet was frozen. On the day of binding assay, the pellet was homogenized in assay buffer containing 50 mM KH2PO4, 1 mM EDTA, 200 mM KCl (pH 7.4) and centrifuged, and resuspended in fresh assay buffer to a final protein concentration of 1 mg/ml. […] Specific binding was defined as the total amount bound (zero unlabeled ligand) minus the binding in the presence of 10 μM final concentration flurazepam (Sigma). Data was analyzed with GraphPad Prism 4.0 Software (San Diego, Calif.) to determine IC50 (One-site competition equation) and Hill slope (Sigmoidal Dose-Response equation). Experiments were conducted in triplicate.

GABAARs [2] = test system: T1, GABAARs; assay: Whole-cell patch-clamp, DGCs in hippocampal slices, acute drug application; type: cell-based, rat; conditions: comparative experiments, rat hippocampal slices
T1 construct: DHM-enhanced mIPSCs; other: control (vehicle) cultured neurons, DIV14; other: cultured neurons with EtOH exposure/withdrawal (60 mM, 30 min, 24 hr); EtOH-potentiated mIPSCs; effect on post-synaptic currents (mIPSCs); other: comparative experiments, rat hippocampal slices
Method: (§1) Transverse slices (400 μm) of dorsal hippocampus were obtained with a Vibratome (VT 100, Technical Products International, St. Louis, Mo.) and standard techniques known in the art. Slices were continuously perfused with artificial cerebrospinal fluid (ACSF).
(§2) Signals were recorded in voltage-clamp mode with a […] amplifier (Molecular Devices, Sunnyvale, Calif.). Whole cell access resistances were in the range of <25 MΩ before electrical compensation by about 70%. During voltage-clamp recordings, access resistance was monitored by measuring the size of the capacitative transient in response to a 5 mV step command and the data were abandoned if changes >20% were encountered. At least 10 min was allowed for equilibration of the pipette solution with the intracellular milieu before commencing mIPSC recordings.
(§3) Data were analyzed using the Clampfit (Version 9.0, Molecular Devices) and the MiniAnalysis Program (versions 6.0.7, Synaptosoft, Decatur, Ga.).
(§4) The MiniAnalysis program (Synaptosoft, Decatur, Ga.) was used to analyze mIPSCs. Itonic is the averaged baseline currents of a given recording period. Itonic amplitude was calculated as the difference between the holding currents measured before and after picrotoxin (100 μM) or bicuculline (10 μM). […] Briefly, the recordings were low-pass filtered off-line (Clampfit software) at 2 kHz. The mIPSCs were detected (Mini Analysis Program, version 6.0.7) with threshold criteria of 8 pA amplitude and 20 pA*ms charge transfer. The frequency of mIPSCs was determined from all automatically detected events in a given 100 s recording period. For kinetic analysis, only single event mIPSCs with a stable baseline, sharp rising phase (10 to 90% rise time), and exponential decay were chosen during visual inspection of the recording trace. Double and multiple peak mIPSCs were excluded. At least 100 individual mIPSC events were recorded under each experimental condition. The mIPSC kinetics was obtained from analysis of the averaged chosen single events aligned with half rise time in each cell. Decay time constants were obtained by fitting a double exponential to the falling phase of the averaged mIPSCs. Itonic magnitudes were obtained from the averaged baseline current of a given recording period. Itonic amplitude was calculated as the difference between the holding currents measured before and after the application of picrotoxin (50 μM) or bicuculline (10 μM). […] The investigator performing the recordings and mIPSC analysis was blind to the treatment (vehicle, EtOH, E+D, or D) that the rats received.
(§5) As performed previously, whole-cell patch-clamp recordings in dentate gyms granule cells (DGCs) from hippocampal slices in vitro were conducted.

GABAARs [3] = test system: T2, GABAARs; assay: as above; type: cell-based, rat; conditions: in the presence of 60 mM EtOH, rat hippocampal slices
T2 construct: other: in the presence of 60 mM EtOH, rat hippocampal; shift of the GABA concentration-response curve
Method: as §1, §2, §3, §4, §5

GABAARs [4] = test system: T3, GABAARs; assay: as above; type: cell-based, rat; conditions: comparative experiments, rat hippocampal slices
T3 construct: DHM-enhanced Itonic; EC50 on GABAAR-mediated Itonic; other: control (vehicle) cultured neurons, DIV14; other: cultured neurons with EtOH exposure/withdrawal (60 mM, 30 min, 24 hr); EtOH-potentiated Itonic; GABAAR-mediated Ito
Method: as §1, §2, §3, §4, §5

[5] = test system: EtOH-induced LORR in rats
Method: See Kakihana R, et al. (1966) Science 154(756):1574-1575). Briefly, after drug injection, rats were placed in the supine position in a V-shaped support. LORR onset time was taken from the endpoint of drug injection (i.p.). LORR duration ended when the animal was able to flip over three times in 30 s. LORR assays were blindly performed. LORR durations were reported as mean (min)±SEM.
Further LORR assays were conducted as follows.
Additional pre-treatment and post-treatment experiments were also conducted.
See Hunkeler, W., et al. (1981) Nature 290:514-516.

GABAARs [6] = test system: T1, GABAARs; assay: Whole-cell patch-clamp, cultured hippocampal neurons, acute drug application; type: cell-based, rat; conditions: DHM 1 μM + 10 μM flumazenil
Method: (§6) Hippocampal neurons from embryonic day 18 rats were prepared by papain dissociation (Worthington Biochemical, Lakewood, N.J.) and cultured in neurobasal medium and B27 supplement (Invitrogen). Cultures were kept at 37° C. in a 5% CO2 humidified incubator as described previously. See Shen, Y., et al. (2011) Mol Pharmacol 79:432-442.
(§7) Hippocampal neurons from embryonic day 18 SD rats were prepared by papain dissociation (Worthington Biochemical, Lakewood, N.J.) and cultured in neurobasal medium (Invitrogen) and B27 supplement as previously reported. See Stowell J N and Craig A M (1999) Neuron 22(3):525-536. Briefly, embryos were removed from maternal rats anesthetized with isoflurane and euthanized by decapitation. Hippocampus were dissected and placed in Ca^2+- and Mg^2+-free HEPES-buffered Hank's buffered salt solution (pH 7.45). Tissues were dissociated by papain digestion followed by trituration through a Pasteur pipette and papain inhibitor treatment. Cells were pelleted and resuspended in neurobasal medium containing 2% B27 serum-free supplement, 100 U/ml penicillin, 100 μg/ml streptomycin, 0.5 mM glutamine (all from Invitrogen), and 10 μM glutamate (Sigma).
(§8) Dissociated neurons were then plated at a density of 0.3×10^5 cells/cm^2 onto 12 mm round coverslips in 24-well plates (for patch-clamp recording) and/or at a density of 0.5×10^5 cells/cm^2 in 6-well plates (for Western blot and biotinylation assays) coated with poly-D-lysine (Sigma, 50 μg/ml). Cultures were kept at 37° C. in a 5% CO2 humidified incubator. Thereafter, one third to half of the medium was replaced twice a week with neurobasal culture medium containing 2% B27 supplement, and 0.5 mM glutamine.
(§9) Control neurons were treated with corresponding vehicle as same procedure as EtOH-treated neurons. The concentration of 60 mM EtOH was selected in view of prior experiments. See Liang J et al (2007). Specifically, the concentration of 60 mM EtOH used to treat cultured neurons was chosen to match blood levels measured in adult rats after intoxication with gavage of 5 g/kg, which produced about 60 mM blood peak plasma [EtOH] lasting for about 2 to 3 hr and induced significant plasticity in GABAARs and tolerance.
(§10) Then, immediately before electrophysiological recording, cells grown on coverslips were transferred to a perfusion chamber (Warner Instruments) and visualized with an inverted microscope (TE200, Nikon). Whole-cell patch-clamp recordings were obtained from cultured neurons under voltage-clamp mode at room temperature (22-25° C.), at a holding potential of −70 mV. Cells were perfused with an extracellular solution (137 mM NaCl, 5 mM KCl, 2 mM CaCl2, 1 mM MgCl2, 20 mM glucose and 10 mM HEPES (310-320 Osm, pH adjusted to 7.40 with NaOH)). Glass pipettes were filled with the same internal solution as that in slice recordings, with an input resistance of 4-7 MΩ. GABAAR-mediated mIPSCs were recorded using the same pharmacological method as mentioned above. […] Electrical signals were amplified using a Multiclamp 200 B amplifier (Molecular Devices, USA). After establishing the whole-cell configuration, at least 10 min were allowed to elapse before the application of drug to allow the membrane patch to stabilize and exchange of ions between the recording electrode and the cytosol to occur. Data were acquired with pClamp software (Version 10.0, Molecular Devices, USA), digitized at 20 kHz (Digidata 1440A, Molecular Devices), and analyzed using the Clampfit software (Version 10.0, Molecular Devices) and the Mini Analysis Program (versions 6.0.7, Synaptosoft, Decatur, Ga.) using methods known in the art. See Hamann M, et al. (2002) Neuron 33(4):625-633; Stell B M and Mody I (2002) J Neurosci 22(10): RC223; and Liang (2007).

GABAARs [7] = test system: T3, GABAARs; assay: as above; type: cell-based, rat; conditions: DHM 1 μM + 10 μM flumazenil
Method: as §6, §7, §8, §9, §10

Compound: O=c1c(-c2ccc(O)cc2)coc2cc(O)ccc12 [daidzein]
- binding to GABAARs in [3H]flunitrazepam binding assay [1]: bind GABAARs

Compound: O=c1c(-c2ccc(O)cc2)coc2cc(O[C@@H]3O[C@H](CO)[C@@H](O)[C@H](O)[C@H]3O)ccc12 [daidzin, reference compound]
- effect on post-synaptic currents (mIPSCs) (GABAARs [2]): significantly potentiated
- block of EtOH potentiation of GABAAR-mediated Itonic and mIPSCs (GABAARs [3]): do not
- effect on extrasynaptic GABAAR-mediated tonic current (Itonic) (GABAARs [4]): no effect
- binding to GABAARs in [3H]flunitrazepam binding assay [1]: bind GABAARs

Compound: CCOC(=O)c1ncn2c1CN(C)C(=O)c1cc(F)ccc1-2 [flumazenil, reference compound]
- LORR duration ([5]; flumazenil 10 mg/kg + DHM 3 mg/kg + EtOH): 56.1 ± 4.6 min
- LORR duration ([5]; flumazenil 10 mg/kg + DHM 10 mg/kg + EtOH): 29.3 ± 4.8 min
- LORR duration ([5]; flumazenil 10 mg/kg co-injected with EtOH, no DHM): 71.1 ± 4.8 min
- LORR duration ([5]; flumazenil 30 mg/kg + DHM 3 mg/kg + EtOH): 58.2 ± 3.9 min
- DHM-enhanced mIPSCs (GABAARs [6]): 125.7±3.9%
- DHM-enhanced Itonic (GABAARs [7]): 143.0±3.2%

Compound: O=c1c(O)c(-c2ccc(O)c(O)c2)oc2cc(O)cc(O)c12 [quercetin, reference compound]
- effect on post-synaptic currents (mIPSCs) (GABAARs [2]): no effect
- block of EtOH potentiation of GABAAR-mediated Itonic and mIPSCs (GABAARs [3]): do not
- effect on extrasynaptic GABAAR-mediated tonic current (Itonic) (GABAARs [4]): no effect
- binding to GABAARs in [3H]flunitrazepam binding assay [1]: do not bind

The next lines start with the values.

- binding to GABAARs in [3H]flunitrazepam binding assay [1]: do not bind
Compound: O=c1c(-c2ccc(O)cc2)coc2cc(O)cc(O)c12 [genistein]

- binding to GABAARs in [3H]flunitrazepam binding assay [1]: do not bind
Compound: O=c1c(O)c(-c2cc(O)c(O)c(O)c2)oc2cc(O)cc(O)c12 [myricetin]

- binding to GABAARs in [3H]flunitrazepam binding assay [1]: do not bind
Compound: O=c1c(-c2ccc(O)cc2)coc2c([C@@H]3O[C@H](CO)[C@@H](O)[C@H](O)[C@H]3O)c(O)ccc12 [puerarin]

Source: US20130053435A1, “Methods of Treating Alcohol Intoxication, Alcohol Use Disorders and Alcohol Abuse Which Comprises the Administration of Dihydromyricetin” (priority 2011, published 2013)
